In patent publication US20200085058A1, “SELECTIVE HERBICIDES BASED ON SUBSTITUTED THIEN-3-YL-SULPHONYLAMINO(THIO)CARBONYLTRIAZOLIN(THI)ONES AND SAFENERS” (Bayer CropScience Aktiengesellschaft, priority 2001, published 2020):

Assays:
Type in all cases: in vivo
[1] = tested on: winter barley; assay: Example A-2 post-emergence test/greenhouse, crop damage, 0.5% Renex-36
Description: (§1) The active compound or safener components are in each case dissolved in a few ml (generally 2-3 ml) of solvent (generally acetone or N,N-dimethyl-formamide), and the solutions are combined and then—if appropriate after addition of an emulsifier—diluted with water to the desired concentration. In general, an aqueous spray liquor was prepared using 0.1% of the additive Renex-36.
(§2) The test plants are grown under controlled conditions (temperature, light, atmospheric humidity) in a greenhouse. The test plants are sprayed when they have reached a height of 5-15 cm. The concentration of the spray liquor is chosen such that the particular amounts of active compound desired are applied in 500 l of water/ha.
(§3) After spraying, the pots with the test plants are kept in a greenhouse chamber under controlled conditions (temperature, light, atmospheric humidity) until the test has ended. About three weeks after the application, the degree of damage to the crop plants is rated in % damage in comparison to the development of the untreated control.
(§4) The figures denote: • 0%=no damage (like untreated control) • 100%=total destruction/damage
Here, an aqueous spray liquor comprising 0.5% of the additive Renex-36 was prepared.

[2] = tested on: maize of the cultivar "LIXIS"; assay: Example A-3 post-emergence test/greenhouse, crop damage, Maize 3; conditions: 7 days after the application, Table A-3-3
Description: as §1, §2
(§5) After spraying, the pots with the test plants are kept in a greenhouse chamber under controlled conditions (temperature, light, atmospheric humidity) until the test has ended. […]
as §4
(§6) The compound I-2 was used as 10 WP. In each case, Marlipal® was added in an amount of 500 ml/ha.
(§7) Evaluation was carried out as early as 7 days after the application. • Maize 1=maize of the cultivar “Prinz” • Maize 2=maize of the cultivar “Pioneer” • Maize 3=maize of the cultivar “LIXIS”

[3] = tested on: maize of the cultivar "Pioneer"; assay: Example A-3 post-emergence test/greenhouse, crop damage, Maize 2; conditions: 7 days after the application, Table A-3-2
Description: as §1, §2, §5, §4, §6, §7

[4] = tested on: maize of the cultivar "Prinz"; assay: Example A-3 post-emergence test/greenhouse, crop damage, Maize 1; conditions: 7 days after the application, Table A-3-1
Description: as §1, §2, §5, §4, §6, §7

[5] = tested on: maize cv. "Pioneer"; assay: Example A post-emergence test/greenhouse, crop damage, 0.1% Renex-36; conditions: 10 g of a.i./ha; Table A1; about three weeks after application
Description: The active compound or safener components are in each case dissolved in a few ml (generally 2-3 ml) of solvent (generally acetone or N,N-dimethyl-formamide), and the solutions are combined and then—if appropriate after addition of an emulsifier—diluted with water to the desired concentration. […] The test plants are grown under controlled conditions (temperature, light, atmospheric humidity) in a greenhouse. […] The concentration of the spray liquor is chosen such that the particular amounts of active compound desired are applied in 500 l of water/ha. After spraying, the pots with the test plants are kept in a greenhouse chamber under controlled conditions (temperature, light, atmospheric humidity) until the test has ended. About three weeks after the application, the degree of damage to the crop plants is rated in % damage in comparison to the development of the untreated control. […] Active compounds, application rates, test plants and results are shown in the tables below, the terms being used in the tables being as defined below: • maize=maize cv. “Pioneer” • a.i.=active ingredient=active compound/safener

[6] = tested on: winter wheat; assay: Example A-5 post-emergence test/greenhouse, crop damage
Description: as §1, §2, §3, §4
(§8) Mefenpyr-diethyl was used as 100 EC and the compound of Ex. No. I-2 was used as 10 WP.

[7] = tested on: winter barley; assay: as above
Description: as §1, §2, §3, §4, §8

[8] = tested on: winter barley; assay: Example A-4 post-emergence test/greenhouse, crop damage; conditions: safener alone 50 g of a.i./ha; Table A-4-4
Description: as §1, §2, §3, §4
(§9) Mefenpyr-diethyl was used as 100 EC.
(§10) The compounds of Ex. Nos. I-2 and I-13 were used as 10 WP.

[9] = tested on: winter wheat; assay: as above; conditions: safener alone 50 g of a.i./ha; Table A-4-1
Description: as §1, §2, §3, §4, §9, §10

COCC(=O)Nc1ccc(S(=O)(=O)NC(=O)c2ccccc2OC)cc1 [Comp. No. IId-25]
Damage winter barley (in %) ([1]; safener alone 30 g of a.i./ha, Table A-2-2): 0%
Damage winter barley (in %) ([1]; safener alone 100 g of a.i./ha, Table A-2-2): 0%

COC(=O)c1csc(C)c1S(=O)(=O)[N-]C(=O)n1nc(OC)n(C)c1=O.[Na+] [I-2, sodium salt]
Damage winter barley (in %) ([1]; 2 g of a.i./ha, Table A-2-1): 50%
Damage winter barley (in %) ([1]; 4 g of a.i./ha, Table A-2-1): 60%

COC(=O)c1csc(C)c1S(=O)(=O)NC(=O)n1nc(OC)n(C)c1=O [I-2]
Damage Maize 3 (in %) ([2]; 8 g of a.i./ha): 20%
Damage Maize 3 (in %) ([2]; 15 g of a.i./ha): 40%
Damage maize 2 (in %) ([3]; 8 g of a.i./ha): 10%
Damage maize 2 (in %) ([3]; 15 g of a.i./ha): 20%
Damage Maize 1 (in %) ([4]; 8 g of a.i./ha): 10%
Damage Maize 1 (in %) ([4]; 15 g of a.i./ha): 20%
Damage maize (in %) [5]: 35%

CCOC(=O)c1csc(C)c1S(=O)(=O)NC(=O)n1nc(OC)n(C)c1=O [I-13]
Damage winter wheat (in %) ([6]; in vivo): 50%

CCOn1c(CC)nn(C(=O)NS(=O)(=O)c2c(C(=O)OC)csc2C)c1=O [I-17]
Damage winter barley (in %) ([7]; 8 g of a.i./ha, Table A-5-13): 70%
Damage winter barley (in %) ([7]; 15 g of a.i./ha, Table A-5-13): 70%
Damage winter barley (in %) ([7]; 30 g of a.i./ha, Table A-5-13): 80%
Damage winter wheat (in %) ([6]; 8 g of a.i./ha, Table A-5-7): 40%
Damage winter wheat (in %) ([6]; 15 g of a.i./ha, Table A-5-7): 50%
Damage winter wheat (in %) ([6]; 30 g of a.i./ha, Table A-5-7): 70%

CCOC(=O)C1=NN(c2ccc(Cl)cc2Cl)C(C)(C(=O)OCC)C1 (centres unmarked) [mefenpyr-diethyl, diethyl 1-(2,4-dichloro-phenyl)-4,5-dihydro-5-methyl-1H-pyrazole-3,5-dicarboxylate, reference compound]
Damage winter barley (in %) [8]: 0%
Damage winter wheat (in %) [9]: 0%
Damage winter barley (in %) ([7]; safener alone 50 g of a.i./ha, Table A-5-11): 0%
Damage winter wheat (in %) ([6]; safener alone 50 g of a.i./ha, Table A-5-1): 0%
Damage winter wheat (in %) ([6]; safener alone 50 g of a.i./ha, Table A-5-2): 0%
Damage winter wheat (in %) ([6]; safener alone 50 g of a.i./ha, Table A-5-3): 0%
Damage winter wheat (in %) ([6]; safener alone 50 g of a.i./ha, Table A-5-4): 0%
Damage winter wheat (in %) ([6]; safener alone 50 g of a.i./ha, Table A-5-5): 0%
